Results published in US7417122B2, “Mammalian galanin receptors” (Schering Corporation, priority 1997, dated 2008).
Non-standard residues stand in square brackets, D forms with d. Residues, ends and D or L forms follow the SMILES beside them.

Biological target: T1, rat GalR3 receptor (Rattus norvegicus, UniProt O88626)
T1 construct: expressed in transfected cells; host or cells: COS-7 cells (ATCC CRL 1651), transient electroporation with pCR 3.1; membrane preparation
T1 sequence (O88626 1-370 P53Q/R54G/T57Q/P127Q/R137C/A150G/W176L/A183R/T188A/F210L/C272I/R311C): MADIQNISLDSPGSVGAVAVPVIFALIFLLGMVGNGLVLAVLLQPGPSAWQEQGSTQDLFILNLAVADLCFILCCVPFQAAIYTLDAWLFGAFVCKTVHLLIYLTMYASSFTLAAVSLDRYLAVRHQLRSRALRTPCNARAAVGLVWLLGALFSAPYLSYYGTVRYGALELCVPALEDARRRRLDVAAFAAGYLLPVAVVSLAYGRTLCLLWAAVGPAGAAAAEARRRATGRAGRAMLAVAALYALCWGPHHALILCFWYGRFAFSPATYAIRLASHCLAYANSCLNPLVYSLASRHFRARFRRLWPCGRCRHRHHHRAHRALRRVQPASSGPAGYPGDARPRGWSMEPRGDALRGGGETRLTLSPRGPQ
Test: 125I-porcine galanin competition binding to membranes of COS-7 cells transfected with rat GalR3 receptor
Conditions: FIG. 2, 125I-porcine galanin binding to rat GalR3 membranes
Experimental: Transfection was carried out as follows. Confluent COS-7 cells (ATCC CRL 1651) grown in DMEVI supplemented with 10% fetal calfserum (FCS) with 100 units/ml penicillin and 100 μg/ml streptomycin were split 1:6 into 150 mm dishes (Nunc) three days prior to transfection. On the day of transfection, the cells were approximately 90% confluent and trypsinized off plates and washed two times with PBS without Mg^++ and Ca^++. The cells were resuspended in Krebs Ringer's buffer at a density of approximately 1.2×10^7 cells/ml. […]
To each plate, 5 ml of 5 mM Hepes buffer (pH 7.4), 0.1 mM PMSF, and 0.1 mg/ml bacitracin were added and incubated at room temperature for 15 minutes. […] Protein concentrations were determined using a […] (bicinchoninic acid) method (Pierce, Rockford, Ill.).
Binding of ^125I-porcine-galanin to the membrane preparations was performed in a buffer containing 25 mM Tris-Cl (pH7.4), 1% bovine serim albumin (w/v), 0.1% bacitracin, 2 μg/ml leupeptin and 10 mM MgCl2. […] All data were analyzed using non-linear regression software (Prism, GraphPad, San Diego, Calif.), and the Ki was calculated using the method of Cheng and Prusoff [Biochem. Pharmacol. 22:3099-3108 (1973)].

Compound	competitive inhibition of the labeled galanin
CC(C)C[C@H](NC(=O)[C@H](CC(C)C)NC(=O)[C@@H](Cc1c[nH]c2ccccc12)NC(=O)[C@H](Cc1ccccc1)NC(=O)[C@@H](Cc1c[nH]c2ccccc12)NC(=O)[C@H](CCC(N)=O)NC(=O)[C@H](CCC(N)=O)NC(=O)[C@@H]1CCCN1C(=O)[C@H](CCCCN)NC(=O)[C@@H]1CCCN1C(=O)[C@@H](CCCNC(=N)N)NC(=O)[C@@H]1CCCN1C(=O)CNC(=O)[C@H](CC(C)C)NC(=O)[C@H](CC(C)C)NC(=O)[C@H](Cc1ccc(O)cc1)NC(=O)CNC(=O)[C@H](C)NC(=O)[C@H](CO)NC(=O)[C@H](CC(N)=O)NC(=O)[C@H](CC(C)C)NC(=O)[C@@H](NC(=O)[C@H](Cc1c[nH]c2ccccc12)NC(=O)CN)[C@@H](C)O)C(N)=O [chimeric galanin peptide C7] (H-GWTLNSAGYLLGP[dR]PKPQQ[dW]F[dW]LL-NH2; N-terminus and C-terminus assumed)	competitive inhibitors
CC[C@H](C)[C@H](NC(=O)[C@H](C)NC(=O)[C@H](Cc1c[nH]cn1)NC(=O)[C@@H]1CCCN1C(=O)CNC(=O)[C@H](CC(C)C)NC(=O)[C@H](CC(C)C)NC(=O)[C@H](Cc1ccc(O)cc1)NC(=O)CNC(=O)[C@H](C)NC(=O)[C@H](CO)NC(=O)[C@H](CC(N)=O)NC(=O)[C@H](CC(C)C)NC(=O)[C@@H](NC(=O)[C@@H](N)Cc1c[nH]c2ccccc12)[C@@H](C)O)C(=O)N[C@@H](CC(=O)O)C(=O)N[C@@H](CC(N)=O)C(=O)N[C@@H](Cc1c[nH]cn1)C(=O)N[C@@H](CCCNC(=N)N)C(=O)N[C@@H](CO)C(=O)N[C@@H](Cc1ccccc1)C(=O)N[C@@H](CO)C(=O)N[C@@H](CC(=O)O)C(=O)N[C@@H](CCCCN)C(=O)N[C@@H](Cc1c[nH]cn1)C(=O)NCC(=O)N[C@@H](CC(C)C)C(=O)N[C@H](C(N)=O)[C@@H](C)O [galanin(2-29)]	competitive inhibitors
